This is an account of results in patent US20150104392A1, “COMPOSITIONS, BIOMARKERS AND THEIR USE IN THE TREATMENT OF CANCER” (Aptose Biosciences Inc., priority 2013, published 2015).

A short description of data set [1]: Pharmacokinetics, serum level after i.v. bolus. The class given is in vivo. As to conditions: CD-1 nude mice; i.v. bolus 1, 5 and 15 mg/kg. The method, then: To study the pharmacokinetic (PK) […], CD-1 nude mice were treated by i.v. bolus injections of LOR-253HCl at 1, 5, and 15 mg/kg. The serum level of LOR-253 was measured.
In data set [2] the test system is advanced or metastatic solid tumours. The experiment in a line: Open-label phase 1 study in patients with advanced or metastatic solid tumours. Type of data set: in vivo, human. The method, then: Phase I: This was an open-label, phase 1 study to determine the maximum tolerated dose (MTD) or appropriate target dose if MTD not reached to identify the recommended phase 2 dose of LOR-253HCl in patients with advanced or metastatic solid tumours. In the first set of doses, LOR-253HCl was given in ascending doses until the maximum administered dose or appropriate target dose is reached. In the other set of doses, LOR-253HCl was given in ascending doses starting from 20 mg/m^2 until the maximum administered dose or appropriate target dose is reached. Patient as treated on LOR-253HCl for 2 cycles for the evaluation. • Other Name: No other names are used. • Study Type: Interventional • Study Design: Endpoint Classification: Safety Study • Intervention Model: Single Group Assignment • Masking: Open Label • Primary Purpose: Treatment • Official Title: Open-Label, Phase 1 Study of LOR-253HCl in Patients With Advanced or Metastatic Solid Tumours
• To determine the maximum tolerated dose (MTD) or appropriate target dose if MTD not reached to identify the recommended phase 2 dose of LOR-253HCl in patients with advanced or metastatic solid tumours. [Time Frame: 8 weeks]
• To characterize the safety profile of LOR-253HCl when administered to patients with advanced or metastatic solid tumours. [Time Frame: 8 weeks]
• 1. Male or female 18 years of age or older. • 2. Histologically confirmed diagnosis of solid tumor for which no effective therapy is available or that is unresponsive to conventional therapy. • 3. Meet laboratory parameter requirements at study entry.
• 1. Chemotherapy, radiotherapy, biologic therapy, immunotherapy or any other investigational drugs within 21 days of beginning study treatment with LOR-253HCl. • 2. A hematologic malignancy. • 3. A history of brain or other central nervous system metastases. • 4. Have a presence of a significant infection. • 5. Clinically significant autoimmune disease. • 6. Uncontrolled intercurrent illness. • 7. With iron or copper overload syndromes. • 8. Pregnancy or breast feeding.

For data set [3], the system named is Kasumi-1 xenograft. The experiment in a line: Kasumi-1 AML xenograft model. Type of data set: in vivo. As to conditions: 30 mg/kg (15 mg/kg twice per day) i.v., two consecutive days per week, four weeks. The procedure: The anti-tumor activity of LOR-253HCl was evaluated in another in vivo animal model of human AML. The human AML cell line Kasumi-1 was implanted subcutaneously into athymic nude mice. Some tumor-bearing mice were treated with LOR-253HCl at 30 mg/kg (15 mg/kg twice per day) for two consecutive days per week for four weeks (the “LOR-253 treatment group”). LOR-253 was administered by intravenous (i.v.) bolus injection as the hydrochloric salt form (LOR-253-HCl) formulated in 20% Polyethylene Glycol 400, 10% Propylene Glycol, and 10% Solutol HS in 60% water.
The major endpoint was to observe for tumor growth inhibition after treatment with LOR-253HCl and compare the anti-tumor effects of different dosing schedules. Tumor sizes were measured three times per week from day 10 after the tumor cell inoculation. Tumors were measured in three dimensions using calipers and the volume was expressed in millimeters cubed using the formula: V=0.5 a×b×c, where a, b, and c are the length, width, and height of the tumor, respectively. Mean tumor volumes+/−standard error (SE) were calculated from each measurement and then plotted in a standard graph to compare the anti-tumor efficacy of drug treatment to that of control (FIG. 20). Toxicity was assessed by clinical observations and by measurement of mouse body weight in grams twice per week over the course of the study. Mean body weights were calculated from each measurement and then plotted to compare body weight changes in the drug treatment group to that of control (FIG. 21).

The test system of data set [4] is HL-60 xenograft. The experiment in a line: HL-60 AML xenograft model. The class given is in vivo, athymic nude mice. As to conditions: 3 cycles. The method, then:
The human AML cell line HL-60 was implanted subcutaneously into athymic nude mice. Tumor-bearing mice were treated with LOR-253HCl alone or in combination with azacitidine, with azacitidine alone, or with a negative control vehicle. The detailed treatment conditions are as follows. • Group 1: Negative control group. LOR-253HCl control vehicle, 2×/day, 3 cycles of 2 consecutive days, 5 days between cycles, i.v., plus 1% D-mannitol every four days by s.c. injection • Group 2: Azacitidine (in 1% D-mannitol) at 10 mg/kg 1× on days 1, 4, 8, 11, 15 and 18 by subcutaneous (s.c.) injection • Group 3: LOR-253HCl at 15 mg/kg bid for 3 cycles, each cycle is 2 consecutive days of dosing per week with 5 days of non-dosing, i.v., n=9 (2T-5B) • Group 4: LOR-253HCl at 15 mg/kg 2×/day (bid) for 3 cycles, each cycle is 1 day of dosing per week with 6 days of non-dosing, i.v., n=9 (1T-6B) • Group 5: Combination of LOR-253 (2T-5B) and azacitidine. LOR-253HCl at 15 mg/kg bid for 3 cycles, each cycle is 2 consecutive days of dosing per week with 5 days of non-dosing, i.v., n=9 (2T-5B) plus azacitidine at 10 mg/kg 1× every four days by s.c. injection • Group 6: Combination of LOR-253 (1T-6B) and azacitidine. […]
Tumor sizes were measured three times per week.

For data set [5], the system named is KG-1 xenograft. The experiment in a line: KG-1 AML xenograft model. Type of data set: in vivo, mice. As to conditions: 15 mg/kg iv, bid, 2T/wk; single agent. The procedure: The anti-tumor activity of LOR-253HCl was evaluated in yet another in vivo animal model of human AML. Xenograft model mice for AML cell line KG-1 was generated with the same method as in Examples 9 and 10, and were treated with LOR-253HCl or control according to the following regime.
LOR-253-15 mg/kg-iv, bid, 2T/wk-Day 1

Data set [6] deals with THP-1 xenograft. As to the kind of experiment: THP-1 AML xenograft model. Type of data set: in vivo, mice. As to conditions: Group 2: single agent, i.v. Days 1, 2, 8, 9, 15, 16; IP Days 22-25, 29, 30. The method, then: The anti-tumor activity of LOR-253HCl, as a single agent and in combination with azacitidine, was evaluated in yet another in vivo animal model of human AML. Xenograft model mice for AML cell line THP-1 was generated with the same method as in Examples 9 and 10, and were treated with LOR-253HCl alone or in combination with azacitidine, with azacitidine alone, or with a negative control vehicle, and tumor sizes were measured as described in Examples 9 and 10. The detailed treatment conditions are shown as follows, and the results are shown in FIG. 26. • Group 1 Control: received i.v. treatments with LOR-253 control vehicle (CV) on Days 1, 2, 8, 9, 15 &16; received subcutaneous (SC) treatments with Azacitidine control vehicle on Days 1, 4, 8, 11, 15, 18, 22, 25, 29 &32; and received intraperitoneal (IP) treatments with LOR-253-CV on Days 22, 23, 24, 25, 29&30. • Group-2-LOR-253: received i.v. treatments on Days 1, 2, 8, 9, 15 &16; received IP treatments on Days 22, 23, 24, 25, 29&30 • Group-3-Azacitidine: received SC treatments on Days 1, 4, 8, 11, 15, 18, 22, 25, 29 &32. • Group-4-Combination: received i.v. treatments with LOR-253 on Days 1, 2, 8, 9, 15 &16; received IP treatments with LOR-253 on Days 22, 23, 24 &25; and received SC-treatment with Azacitidine on Days 1, 4, 8, 11, 15, 18, 22 &25

For `Cc1[nH]c2ccc(F)cc2c1-c1nc2c3cccnc3c3ncccc3c2[nH]1` [LOR-253HCl], the “serum level of LOR-253” value in data set [1] is recorded as “dose related increase”. Moreover, the “Most common AE and SAE” value in data set [2] (N=27 patients, 7 dose levels) is “Fatigue and 1 case of reversible hypophosphatemia”. The Safety profile result in data set [2] (N=27 patients, 7 dose levels) is reported as “Excellent Safety Profile”. Besides, the “tumor response in individual patient (FIG. 12)” value in data set [2] (patient with NSCLC (poorly differentiated adenocarcinoma), extensive metastases, refractory) is on record as “Tumor shrinkage”. Further, the RECIST partial response entry in data set [2] (patients with advanced solid tumors) is “No RECIST PR”. Moreover, the “Stable Disease, evaluable patients” value in data set [2] (patients with advanced solid tumors, dose-escalating, 7 dose levels) turned out to be 41%. In addition, in data set [3], the body weight result is “did not show body weight loss”. Also, the “overt signs of toxicity” value in data set [3] is listed as “did not show other overt signs of toxicity”. Moreover, the “tumor growth inhibition vs vehicle control” value in data set [3] (p=0.028 Student's t-test) was “statistically significantly increased inhibitory effect”. The tumor growth inhibition entry in data set [4] (Group 3: 15 mg/kg bid i.v., two consecutive days per week (2T-5B)) is “inhibited growth of HL-60 tumors to approximately the same extent as or slightly more than azacitidine alone”; in data set [4] (Group 4: 15 mg/kg bid i.v., one day per week (1T-6B)), “inhibited growth of HL-60 tumors to approximately the same extent as or slightly more than azacitidine alone”; in data set [5], “significant tumor growth inhibition”; in data set [6] it was “inhibited growth of THP-1 tumors to about the same extent as or slightly more than azacitidine alone”.
